Reference: patent US6403125B1, “Utilization of an extract of a plant of the Cecropia genus” (Cognis France (Societe Anonyme), priority 1998, dated 2002)

System: human adipocytes
Assay: Lipolysis activation on human adipocytes in vitro (glycerin release)
Type: cell-based
Conditions: 90 minutes at 37° C.
Text: I. Evidence of the Lipolysis Activation Effect on Human Adipocytes in “in vitro” Survival The test used to emphasise the lipolysis activation of human adipocytes in the presence of Cecropia extracts, which are the subject of the present invention, is described below. Lipolysis is removal of triglycerides (or TG) stored in the adipocytes by a hormone-sensitive enzyme, triglyceride lipase (or TGL) which splits the TG into free fatty acids and glycerin which are removed in the blood circulation. The fatty acids can then be absorbed by the muscle cells to produce energy. 1) Principle of the in vitro Test Activation of lipolysis is evaluated by spectrophotometric metering of the rate of glycerin salted out by adipocytes, incubated “in vitro” with the substance to be tested present. The adipocytes are isolated by enzymatic digestion of subcutaneous human tissue by the so-called Rodbell method (see M. Rodbell: “Metabolism of isolated fat cells”. The journal of biological chemistry, Vol. 239, No. 2, pages 375 to 380, 1964). […] 3) Quantisation of the Lipolysis The rate of salted-out glycerin is quantified by spectrophotometry in the medium of the material which floats on the surface by the method described by C. […] The results are expressed as mean values of the activation percentage relative to a proof mass batch (without Cecropia extract).

Structure (SMILES)	% activation of the lipolysis relative to the proof mass without extract (mean) (0.1 μM)	% activation of the lipolysis relative to the proof mass without extract (mean) (1 mM)
CC(C)NCC(O)c1ccc(O)c(O)c1 (centres unmarked) [Isoprenaline, isoprenaline]	+ 45%	
Cn1c(=O)c2[nH]cnc2n(C)c1=O [Theophylline, theophylline]		+ 70%
